Measured values from patent US5716929A (Vertex Pharmaceuticals, Inc., priority 1995, dated 1998).
Square brackets hold non-standard residues; d marks the D form. Peptide text beside a SMILES is read from it. * marks the point of attachment. Hyp = O=C(O)[C@@H]1C[C@@H](O)CN1; Allyl = C=CC*

target: T1, interleukin-1β converting enzyme (ICE) (Homo sapiens, UniProt P29466); assay: Enzyme assay with UV-visible substrate (Succinyl-Tyr-Val-Ala-Asp-pNitroanilide); type: biochemical; settings: Example 2 table
T1 sequence (P29466 120-297 limits assumed): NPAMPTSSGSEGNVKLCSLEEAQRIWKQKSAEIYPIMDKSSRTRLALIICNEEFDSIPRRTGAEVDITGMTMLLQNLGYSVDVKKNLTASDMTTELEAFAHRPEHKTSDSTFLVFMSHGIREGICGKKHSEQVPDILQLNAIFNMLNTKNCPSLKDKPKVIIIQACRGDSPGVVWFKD
T1 sequence (P29466 317-404 limits assumed): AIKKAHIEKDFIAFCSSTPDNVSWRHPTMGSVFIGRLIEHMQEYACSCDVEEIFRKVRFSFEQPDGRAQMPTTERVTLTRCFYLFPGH
Procedure: 1. Enzyme assay with UV-visible substrate
This assay is run using an Succinyl-Tyr-Val-Ala-Asp-pNitroanilide substrate (SEQ ID NO: 1). Synthesis of analogous substrates is described by L. A. Reiter (Int. J. Peptide Protein Res. 43, 87-96 (1994)). The assay mixture contains: […]
The visible ICE assay is run in a 96-well microtiter plate. Buffer, ICE and DMSO (if inhibitor is present) are added to the wells in the order listed. The components are left to incubate at room temperature for 15 minutes starting at the time that all components are present in all wells. The microtiter plate reader is set to incubate at 37° C. After the 15 minute incubation, substrate is added directly to the wells and the reaction is monitored by following the release of the chromophore (pNA) at 405-603 nm at 37° C. for 20 minutes. A linear fit of the data is performed and the rate is calculated in mOD/min. DMSO is only present during experiments involving inhibitors, buffer is used to make up the volume to 100 μl in the other experiments.
For determination of enzyme inhibition constants (Ki) or the mode of inhibition (competitive, uncompetitive or noncompetitive), the rate data determined in the enzyme assays at varying inhibitor concentrations are computer-fit to standard enzyme kinetic equations (see I. H. Segel, Enzyme Kinetics, Wiley-Interscience, 1975).

Ki [nM] | Compound
3200 | C[C@H](NC(=O)c1ncc[nH]1)C(=O)N[C@H](C=O)CC(=O)O [Compound 20a, (3S)3-[N-(Imidazole-2-carbonyl)-L-alaninyl]amino-4-oxobutanoic acid]
950 | C[C@H](NC(=O)c1ncc(CCc2ccccc2)[nH]1)C(=O)N[C@H](C=O)CC(=O)O [Compound 20c, (3S)3-{N-[4-(2-Phenylethyl)imidazole-2-carbonyl]-L-alaninyl}amino-4-oxobutanoic acid]
5500 | C[C@H](NC(=O)c1cnc(CCc2ccccc2)[nH]1)C(=O)N[C@H](C=O)CC(=O)O [Compound 33a, (3S)3-{N-[2-(2-Phenylethyl)imidazole-4-carbonyl]-L-alaninyl}amino-4-oxobutanoic acid]
8600 | C[C@H](NC(=O)c1cnc(Cc2ccccc2)[nH]1)C(=O)N[C@H](C=O)CC(=O)O [Compound 33c, (3S)3-[N-(2-Benzylimidazole-4-carbonyl)-L-alaninyl]amino-4-oxobutanoic acid]
4700 | C[C@H](NC(=O)c1ccc[nH]1)C(=O)N[C@H](C=O)CC(=O)O [Compound 36a, (3S)3-[N-(Pyrrole-2-carbonyl)-L-alaninyl]amino-4-oxobutanoic acid]

same assay, conditions: Example 4 table

Ki [nM] | Compound
100 | CC(C)[C@H](NC(=O)OCc1ccccc1)C(=O)N[C@@H](C)C(=O)N[C@H](CC(=O)O)C(=O)COCc1c(Cl)cccc1Cl (mixture of isomers) [Compound 84a, (R,S) N-[N-(Phenylmethyloxy)carbonyl-valinyl-alaninyl]-3-amino-5-(2,6-dichlorophenylmethyloxy)-4-oxo-pentanoic acid]
19 | CC(=O)N[C@@H](Cc1ccc(O)cc1)C(=O)N[C@H](C(=O)N[C@@H](C)C(=O)N[C@H](CC(=O)O)C(=O)COCc1c(Cl)cccc1Cl)C(C)C (mixture of isomers) [Compound 84b, (R,S)N-[N-(Acetyl)tyrosinyl-valinyl-alaninyl]-3-amino-5-(2,6-dichlorophenylmethyloxy)-4-oxo-pentanoic acid]
35000 | O=C[C@H](CC(=O)O)NC(=O)C1CCc2ncc(NC(=O)c3ccccc3)c(=O)n21 (single isomer, unassigned) [Compound 7a]
1200 | O=C[C@H](CC(=O)O)NC(=O)C1CCc2ncc(NC(=O)c3ccccc3)c(=O)n21 (single isomer, unassigned) [Compound 7b]
850 | C[C@H](NC(=O)c1nc(Cc2ccccc2)c[nH]1)C(=O)N[C@H](C=O)CC(=O)O [Compound 20b, (3S)3-[N-(4-Benzylimidazole-2-carbonyl)-L-alaninyl]amino-4-oxobutanoic acid]
100 | C[C@H](NC(=O)c1nc(CCCc2ccccc2)c[nH]1)C(=O)N[C@H](C=O)CC(=O)O [Compound 20d, (3S)3-{N-[4-(3-Phenylpropyl)imidazole-2-carbonyl]-L-alaninyl}amino-4-oxo-butanoic acid]
640 | O=C[C@H](CC(=O)O)NC(=O)[C@@H]1CCCN1C(=O)c1nc(CCc2ccccc2)c[nH]1 [Compound 21c, (3S)3{N-[4-(2-Phenylethyl)imidazole-2-carbonyl]-L-prolinyl}amino-4-oxobutanoic acid]
240 | O=C[C@H](CC(=O)O)NC(=O)[C@@H]1CCCN1C(=O)c1nc(CCCc2ccccc2)c[nH]1 [Compound 21d, (3S) 3-{N-[4-(3-Phenylpropyl)imidazole-2-carbonyl]-L-prolinyl}amino-4-oxo-butanoic acid]
220 | COc1ccc(CCCc2c[nH]c(C(=O)N3CCC[C@H]3C(=O)N[C@H](C=O)CC(=O)O)n2)cc1 [Compound 21e, (3S)3-{N-[4-[3-(4-Methoxyphenyl)propyl]imidazole-2-carbonyl]-L-prolinyl}amino-4-oxobutanoic acid]
170 | O=C[C@H](CC(=O)O)NC(=O)[C@@H]1CCCN1C(=O)c1nc(CCCc2ccc(O)cc2)c[nH]1 [Compound 21f, (3S)3-{N-[4-[3-(4-Hydroxyphenyl)propyl]imidazole-2-carbonyl]-L-prolinyl}amino-4-oxobutanoic acid]
800 | C[C@H](NC(=O)c1ccc(Cc2ccccc2)[nH]1)C(=O)N[C@H](C=O)CC(=O)O [Compound 36b, (3S)3-[N-(5-Benzylpyrrole-2-carbonyl)-L-alaninyl]amino-4-oxobutanoic acid]
2500 | O=C[C@H](CC(=O)O)NC(=O)[C@@H]1CCCN1C(=O)c1cc2ccccc2[nH]1 [Compound 39, (3S) 3-[1-(Indole-2-carbonyl)-L-prolinyl]amino-4-oxobutanoic acid]
20000 | Cc1c[nH]c2c(=O)n(CC(=O)N[C@H](C=O)CC(=O)O)cnc12 [Compound 43, (3S)-3-[2-(3,5-Dihydro-7-methyl-4-oxo-4H-pyrrolo[3,2-d]pyrimidin-3-yl)-1-oxo-ethylamino]-4-oxobutanoic acid]
970 | CC(C(=O)N[C@H](C=O)CC(=O)O)n1c(Cc2ccccc2)ccc(NC(=O)CCc2ccccc2)c1=O (stereo partly drawn) [Compound 54h, 3(S), N(2(R,S))3-(2-(6-Benzyl-1,2-dihydro-2-oxo-3-(3-phenylpropionyl)amino-1-pyridyl)propionylamino)-4-oxobutanoic acid]

same assay, conditions: Example 6 table

Ki [nM] | Compound
345 | CC(C(=O)N[C@H](C=O)CC(=O)O)N1CCN(C(=O)CCc2ccccc2)C[C@H](NC(=O)CCc2ccccc2)C1=O (mixture of isomers) [Compound 115, 4-Oxo-3(S)-{2(R,S)-[7-oxo-4-(3-phenyl-propionyl)-6(S)-(3-phenyl-propionylamino)-[1,4]diazepan-1-yl]propionylamino}-butyric acid]
190 | COc1ccc(CCCc2cnc(C(=O)N3C[C@H](Oc4ccccc4)C[C@H]3C(=O)N[C@H](C=O)CC(=O)O)[nH]2)cc1 [Compound 22e, 3(S)-[(1-{5-[3-(4-Methoxyphenyl)propyl]-1H-imidazole-2-carbonyl}-4(R)-phenoxypyrrolidine-2(S)-carbonyl)amino]-4-oxobutanoic acid]
3.5 | C=CCO[C@@H]1C[C@@H](C(=O)N[C@H](C=O)CC(=O)O)N(C(=O)[C@@H](NC(=O)[C@H](Cc2ccc(O)cc2)NC(C)=O)C(C)C)C1 [Compound 85, N-(N-Acetyl-tyrosinyl-valinyl-(4 (R)-allyloxyprolinyl))-3(S)-amino-4-oxobutanoic acid] (Ac-YV[Hyp](Allyl)D-aldehyde)
900 | O=C(O)C[C@H](NC(=O)Cn1c(Cc2ccccc2)ccc(NC(=O)CCc2ccccc2)c1=O)C(=O)CO [Compound 88, N-2-(6-Benzyl-1,2-dihydro-2-oxo-3-(3-phenylpropionyl)amino-1-pyridyl)acetyl-3(S)-amino-5-hydroxy-4-oxo-pentanoic acid]
200 | O=C[C@H](CC(=O)O)NC(=O)CN1C(=O)[C@@H](NC(=O)CCc2ccccc2)CN(C(=O)CCc2ccccc2)c2ccccc21 [Compound 106b]

Compound | Ki [nM]
CC(=O)N[C@@H](Cc1ccc(O)cc1)C(=O)N[C@H](C(=O)N[C@@H](C)C(=O)N[C@@H](CC(=O)O)C(=O)COCc1ccccc1Cl)C(C)C [Compound 89, N-Acetyl-(S)-tyrosinyl-(S)-valinyl-(S)-alaninyl-3(S)-amino-5-(2-chlorobenzyloxy)-4-oxo-pentanoic acid] | 18
